The experiment has as its system MV-4-11 cells. Briefly: Gene expression microarray analysis (Affymetrix PrimeView) and GSEA. Set-up: RFU PODN (11730768_x_at) / Fold change /veh PODN (11730768_x_at) / RFU LINC00158 (11744669_a_at) / Fold change /veh LINC00158 (11744669_a_at) / RFU DUSP10 (11751237_a_at) / Fold change /veh DUSP10 (11751237_a_at) / RFU ID3 (11757404_x_at) / Fold change /veh ID3 (11757404_x_at) / RFU PLEKHG5 (11737974_s_at) / Fold change /veh PLEKHG5 (11737974_s_at) / RFU LRRC4B (11730491_at) / Fold change /veh LRRC4B (11730491_at) / RFU GIMAP4 (11747438_a_at) / Fold change /veh GIMAP4 (11747438_a_at) / RFU KRT8 (11758183_x_at) / Fold change /veh KRT8 (11758183_x_at) / RFU CNN1 (11734310_a_at) / Fold change /veh CNN1 (11734310_a_at) / RFU VPS37D (11726825_at) / Fold change /veh VPS37D (11726825_at) / RFU C10orf10 (11716522_x_at) / Fold change /veh C10orf10 (11716522_x_at) / RFU KIR2DL2 /// KIR2DL4 /// KIR2DL5A /// KIR2DL5B /// KIR2DS1 /// KIR2DS2 /// KIR2DS3 /// KIR2DS4 /// KIR3DL3 /// KIR3DL3 /// KIR3DS1 (11738374_at) / Fold change /veh KIR2DL2 /// KIR2DL4 /// KIR2DL5A /// KIR2DL5B /// KIR2DS1 /// KIR2DS2 /// KIR2DS3 /// KIR2DS4 /// KIR3DL3 /// KIR3DL3 /// KIR3DS1 (11738374_at) / RFU C1QL1 (11718748_at) / Fold change /veh C1QL1 (11718748_at) / RFU TMPRSS4 (11747572_a_at) / Fold change /veh TMPRSS4 (11747572_a_at) / RFU HAMP (11756126_x_at) / Fold change /veh HAMP (11756126_x_at) / RFU RNFT2 (11725882_a_at) / Fold change /veh RNFT2 (11725882_a_at) / RFU NR4A2 (11747474_a_at) / Fold change /veh NR4A2 (11747474_a_at) / RFU ABCC12 (11746883_a_at) / Fold change /veh ABCC12 (11746883_a_at) / RFU TMEM136 (11760407_x_at) / Fold change /veh TMEM136 (11760407_x_at) / RFU CLDN22 /// WWC2 (11732394_at) / Fold change /veh CLDN22 /// WWC2 (11732394_at) / RFU HLA-DPB1 (11760878_x_at) / Fold change /veh HLA-DPB1 (11760878_x_at) / RFU SPINT1 (11716480_a_at) / Fold change /veh SPINT1 (11716480_a_at) / RFU GAP43 (11754022_s_at) / Fold change /veh GAP43 (11754022_s_at) / RFU A4GNT (11735810_at) / Fold change /veh A4GNT (11735810_at) / RFU PRB3 (11715151_x_at) / Fold change /veh PRB3 (11715151_x_at) / RFU TUBB4B (11761932_at) / Fold change /veh TUBB4B (11761932_at) / RFU CAPN14 (11732068_a_at) / Fold change /veh CAPN14 (11732068_a_at) / RFU TMCC2 (11721928_a_at) / Fold change /veh TMCC2 (11721928_a_at) / RFU IRGQ (11745062_a_at) / Fold change /veh IRGQ (11745062_a_at) / RFU FAM174B (11720279_a_at) / Fold change /veh FAM174B (11720279_a_at) / RFU TMPRSS4 (11748680_a_at) / Fold change /veh TMPRSS4 (11748680_a_at) / RFU FAM212B (11763350_a_at) / Fold change /veh FAM212B (11763350_a_at) / RFU PLEKHG5 (11743358_a_at) / Fold change /veh PLEKHG5 (11743358_a_at) / RFU ZSCAN30 (11745921_a_at) / Fold change /veh ZSCAN30 (11745921_a_at) / RFU CMKLR1 (11741424_a_at) / Fold change /veh CMKLR1 (11741424_a_at) / RFU LOC101060620 /// MAPK8IP1 (11723275_at) / Fold change /veh LOC101060620 /// MAPK8IP1 (11723275_at) / RFU SPTSSB (11747773_x_at) / Fold change /veh SPTSSB (11747773_x_at) / RFU PRSS12 (11739890_at) / Fold change /veh PRSS12 (11739890_at) / RFU BIN1 (11741810_x_at) / Fold change /veh BIN1 (11741810_x_at) / RFU WNT11 (11732464_a_at) / Fold change /veh WNT11 (11732464_a_at) / RFU C10orf10 (11716521_a_at) / Fold change /veh C10orf10 (11716521_a_at) / RFU C5orf56 (11738089_at) / Fold change /veh C5orf56 (11738089_at) / RFU CYB561 (11721691_x_at) / Fold change /veh CYB561 (11721691_x_at) / RFU ANKRD19P (11752326_a_at) / Fold change /veh ANKRD19P (11752326_a_at) / RFU OR2T12 /// OR2T33 /// OR2T8 (11738714_s_at) / Fold change /veh OR2T12 /// OR2T33 /// OR2T8 (11738714_s_at) / RFU VCAN (11748164_a_at) / Fold change /veh VCAN (11748164_a_at) / RFU JSRP1 (11732532_at) / Fold change /veh JSRP1 (11732532_at) / RFU KRTAP10-11 (11738290_x_at) / Fold change /veh KRTAP10-11 (11738290_x_at) / RFU MYO3A (11730013_a_at) / Fold change /veh MYO3A (11730013_a_at) / RFU EBF3 (11725865_a_at) / Fold change /veh EBF3 (11725865_a_at) / RFU CAMK2N1 (11719241_x_at) / Fold change /veh CAMK2N1 (11719241_x_at) / RFU C5orf56 (11738088_a_at) / Fold change /veh C5orf56 (11738088_a_at) / RFU OLFML3 (11715873_a_at) / Fold change /veh OLFML3 (11715873_a_at) / RFU LOC100653217 /// NTM (11731650_a_at) / Fold change /veh LOC100653217 /// NTM (11731650_a_at) / RFU MAPK11 (11762145_a_at) / Fold change /veh MAPK11 (11762145_a_at) / RFU FIZ1 (11724087_x_at) / Fold change /veh FIZ1 (11724087_x_at) / RFU OASL (11726364_x_at) / Fold change /veh OASL (11726364_x_at) / RFU SOX15 (11748057_x_at) / Fold change /veh SOX15 (11748057_x_at) / RFU CD79A (11719716_a_at) / Fold change /veh CD79A (11719716_a_at) / RFU HIST1H1D (11736915_at) / Fold change /veh HIST1H1D (11736915_at) / RFU CASKIN2 (11723855_a_at) / Fold change /veh CASKIN2 (11723855_a_at) / RFU LOC730098 (11760151_x_at) / Fold change /veh LOC730098 (11760151_x_at) / RFU OR4N2 (11742367_at) / Fold change /veh OR4N2 (11742367_at) / RFU PRRT2 (11749266_a_at) / Fold change /veh PRRT2 (11749266_a_at) / RFU SNX32 (11753110_a_at) / Fold change /veh SNX32 (11753110_a_at) / RFU CDHR5 (11726645_a_at) / Fold change /veh CDHR5 (11726645_a_at) / RFU RCAN1 (11760418_a_at) / Fold change /veh RCAN1 (11760418_a_at) / RFU FAM167A (11723789_a_at) / Fold change /veh FAM167A (11723789_a_at) / RFU FAM26E (11764081_at) / Fold change /veh FAM26E (11764081_at) / RFU ISYNA1 (11749810_s_at) / Fold change /veh ISYNA1 (11749810_s_at) / RFU ACY1 (11761880_at) / Fold change /veh ACY1 (11761880_at) / RFU 11764098_at / Fold change /veh 11764098_at / RFU SAMD14 (11745864_x_at) / Fold change /veh SAMD14 (11745864_x_at) / RFU NPB (11741838_a_at) / Fold change /veh NPB (11741838_a_at) / RFU TMPRSS6 (11731388_a_at) / Fold change /veh TMPRSS6 (11731388_a_at) / RFU KRTAP10-2 (11738614_at) / Fold change /veh KRTAP10-2 (11738614_at) / RFU ARHGAP8 /// PRR5-ARHGAP8 (11727945_x_at) / Fold change /veh ARHGAP8 /// PRR5-ARHGAP8 (11727945_x_at) / RFU KRTAP5-7 /// NADSYN1 (11734609_at) / Fold change /veh KRTAP5-7 /// NADSYN1 (11734609_at) / RFU RASL12 (11751679_a_at) / Fold change /veh RASL12 (11751679_a_at) / RFU CDKN2B (11736163_a_at) / Fold change /veh CDKN2B (11736163_a_at) / RFU PRF1 (11729649_at) / Fold change /veh PRF1 (11729649_at) / RFU, ZNF638 /// ZNF638-IT1 / Fold change vs veh, ZNF638 /// ZNF638-IT1 / RFU, PANK3 / Fold change vs veh, PANK3 / RFU, SH3YL1 / Fold change vs veh, SH3YL1 / RFU, ZEB2 / Fold change vs veh, ZEB2 / RFU, NRIP1 / Fold change vs veh, NRIP1 / RFU, PTTG1IP / Fold change vs veh, PTTG1IP / RFU, CAPN2 / Fold change vs veh, CAPN2 / RFU, MED14 / Fold change vs veh, MED14 / RFU, SNORA58 / Fold change vs veh, SNORA58 / RFU, C1orf63 / Fold change vs veh, C1orf63 / RFU, LRRFIP1 / Fold change vs veh, LRRFIP1 / RFU, NDUFAF7 / Fold change vs veh, NDUFAF7 / RFU, SLC12A2 / Fold change vs veh, SLC12A2 / RFU, IBTK / Fold change vs veh, IBTK / RFU, ESF1 / Fold change vs veh, ESF1 / Fold change vs veh, TMEM50B / RFU, TAOK1 / Fold change vs veh, TAOK1 / RFU, ACBD3 / Fold change vs veh, ACBD3 / RFU, TMA16 / Fold change vs veh, TMA16 / RFU, RWDD3 / Fold change vs veh, RWDD3 / RFU, BCAT1 / Fold change vs veh, BCAT1 / RFU, EDEM3 / Fold change vs veh, EDEM3 / RFU, TMEM33 / Fold change vs veh, TMEM33 / RFU, WDR75 / Fold change vs veh, WDR75 / RFU, AHCTF1 / Fold change vs veh, AHCTF1 / RFU, TFRC / Fold change vs veh, TFRC / RFU, ZDHHC17 / Fold change vs veh, ZDHHC17 / RFU, NOM1 / Fold change vs veh, NOM1 / RFU, ARL8B / Fold change vs veh, ARL8B / RFU, ZBTB11 / Fold change vs veh, ZBTB11 / RFU, TAMM41 / Fold change vs veh, TAMM41 / RFU, KIAA1704 /// LOC100996395 / Fold change vs veh, KIAA1704 /// LOC100996395 / RFU, ING1 / Fold change vs veh, ING1 / RFU, TRMT61B / Fold change vs veh, TRMT61B / RFU, FUBP3 / Fold change vs veh, FUBP3 / RFU, TP53 / Fold change vs veh, TP53 / RFU, TNKS2 / Fold change vs veh, TNKS2 / RFU, ZFP14 / Fold change vs veh, ZFP14 / RFU, ACTR2 / Fold change vs veh, ACTR2 / RFU, PPP3R1 / Fold change vs veh, PPP3R1 / RFU, PIK3R1 / Fold change vs veh, PIK3R1 / RFU, HNRNPA1 / Fold change vs veh, HNRNPA1 / RFU, RNF170 / Fold change vs veh, RNF170 / RFU, ZNF28 / Fold change vs veh, ZNF28 / RFU, RNGTT / Fold change vs veh, RNGTT / RFU, OGT / Fold change vs veh, OGT / RFU, BRD1 / Fold change vs veh, BRD1 / RFU, MARS / Fold change vs veh, MARS / RFU, ZNF655 / Fold change vs veh, ZNF655 / RFU, FAHD1 / Fold change vs veh, FAHD1 / RFU, BDP1 / Fold change vs veh, BDP1 / RFU, LRRCC1 / Fold change vs veh, LRRCC1 / RFU, ARID1A / Fold change vs veh, ARID1A / RFU, ZNF146 / Fold change vs veh, ZNF146 / RFU, ZNF330 / Fold change vs veh, ZNF330 / RFU, GPN3 / Fold change vs veh, GPN3 / RFU, C9orf123 / Fold change vs veh, C9orf123 / RFU, N4BP2L2 / Fold change vs veh, N4BP2L2 / RFU, ARFIP1 / Fold change vs veh, ARFIP1 / RFU, FAM179B / Fold change vs veh, FAM179B / RFU, BCL10 / Fold change vs veh, BCL10 / RFU, UHRF1BP1L / Fold change vs veh, UHRF1BP1L / RFU, BET1 / Fold change vs veh, BET1 / RFU, CNOT2 / Fold change vs veh, CNOT2 / RFU, ZNF268 / Fold change vs veh, ZNF268 / Fold change vs veh, ZNF507 / RFU, DGCR2 / Fold change vs veh, DGCR2 / RFU, WDSUB1 / Fold change vs veh, WDSUB1 / Fold change vs veh, HSP90B1 /// MIR3652 / RFU, ADSS / Fold change vs veh, ADSS / RFU, GK / Fold change vs veh, GK / RFU, ZNF148 / Fold change vs veh, ZNF148 / RFU, TAF9 / Fold change vs veh, TAF9 / RFU, SLC1A5 / Fold change vs veh, SLC1A5 / RFU, SLMO2 / Fold change vs veh, SLMO2 / RFU, ABCC4 / Fold change vs veh, ABCC4 / RFU, LOC101060439 /// RAP1B / Fold change vs veh, LOC101060439 /// RAP1B / RFU, RFX7 / Fold change vs veh, RFX7 / RFU, GTPBP10 / Fold change vs veh, GTPBP10 / RFU, CNEP1R1 / Fold change vs veh, CNEP1R1 / RFU, BIVM-ERCC5 /// ERCC5 / Fold change vs veh, BIVM-ERCC5 /// ERCC5 / RFU, ILF3 / Fold change vs veh, ILF3 / RFU 11762660_at / Fold change /veh 11762660_at / RFU VCAN (11757783_s_at) / Fold change /veh VCAN (11757783_s_at) / RFU DDX43 (11728927_at) / Fold change /veh DDX43 (11728927_at) / RFU KRT8 (11758188_x_at) / Fold change /veh KRT8 (11758188_x_at) / RFU NKD1 (11759106_at) / Fold change /veh NKD1 (11759106_at) / RFU SRD5A1 (11742802_a_at) / Fold change /veh SRD5A1 (11742802_a_at) / RFU TPSAB1 /// TPSB2 (11721975_s_at) / Fold change /veh TPSAB1 /// TPSB2 (11721975_s_at) / RFU GSTM3 (11746129_a_at) / Fold change /veh GSTM3 (11746129_a_at) / RFU IL23R (11737362_x_at) / Fold change /veh IL23R (11737362_x_at) / RFU TMEM51 (11727254_a_at) / Fold change /veh TMEM51 (11727254_a_at) / RFU PIWIL2 (11732686_x_at) / Fold change /veh PIWIL2 (11732686_x_at) / RFU ORM1 (11744905_x_at) / Fold change /veh ORM1 (11744905_x_at) / RFU CCDC152 (11743942_at) / Fold change /veh CCDC152 (11743942_at) / RFU ECM1 (11717891_a_at) / Fold change /veh ECM1 (11717891_a_at) / RFU IL23R (11748794_a_at) / Fold change /veh IL23R (11748794_a_at) / RFU TNFAIP8L3 (11732012_x_at) / Fold change /veh TNFAIP8L3 (11732012_x_at) / RFU MBOAT4 (11741988_at) / Fold change /veh MBOAT4 (11741988_at) / RFU 11764193_at / Fold change /veh 11764193_at / RFU TMEM53 (11763286_at) / Fold change /veh TMEM53 (11763286_at) / RFU MAGEB2 (11727129_at) / Fold change /veh MAGEB2 (11727129_at) / RFU TMEM200A (11744735_a_at) / Fold change /veh TMEM200A (11744735_a_at) / RFU CCDC152 (11751479_a_at) / Fold change /veh CCDC152 (11751479_a_at) / RFU FAM211A (11726209_a_at) / Fold change /veh FAM211A (11726209_a_at) / RFU RGS16 (11746705_a_at) / Fold change /veh RGS16 (11746705_a_at) / RFU VCAN (11755009_s_at) / Fold change /veh VCAN (11755009_s_at) / RFU RHOB (11743442_s_at) / Fold change /veh RHOB (11743442_s_at) / RFU RGS16 (11720943_a_at) / Fold change /veh RGS16 (11720943_a_at) / RFU RGS16 (11720944_at) / Fold change /veh RGS16 (11720944_at) / RFU, VPS4B / Fold change vs veh, VPS4B / RFU, CREB1 / Fold change vs veh, CREB1 / RFU, DNAJC13 / Fold change vs veh, DNAJC13 / RFU, GNAQ / Fold change vs veh, GNAQ / RFU, CDK5R1 / Fold change vs veh, CDK5R1 / RFU, ZRANB3 / Fold change vs veh, ZRANB3 / RFU, CUL4A / Fold change vs veh, CUL4A / RFU, CCNY / Fold change vs veh, CCNY / RFU, UFL1 / Fold change vs veh, UFL1 / RFU, COG3 / Fold change vs veh, COG3 / RFU, DIAPH2 / Fold change vs veh, DIAPH2 / RFU, SKA2 / Fold change vs veh, SKA2 / RFU, AFF3 / Fold change vs veh, AFF3 / RFU, LMF1 / Fold change vs veh, LMF1 / RFU, IPO11 / Fold change vs veh, IPO11 / RFU, DFFB / Fold change vs veh, DFFB / RFU, FOXP1 / Fold change vs veh, FOXP1 / RFU, CARD8 / Fold change vs veh, CARD8 / RFU, STRN3 / Fold change vs veh, STRN3 / RFU, ADK / Fold change vs veh, ADK / RFU, RASSF2 / Fold change vs veh, RASSF2 / RFU, WIPF1 / Fold change vs veh, WIPF1 / RFU, LARP1B / Fold change vs veh, LARP1B / RFU, RASA1 / Fold change vs veh, RASA1 / RFU, RB1 / Fold change vs veh, RB1 / RFU, PPFIA1 / Fold change vs veh, PPFIA1 / RFU, MAT2A / Fold change vs veh, MAT2A / RFU, CCT5 / Fold change vs veh, CCT5 / RFU, WDR92 / Fold change vs veh, WDR92 / RFU, CUX1 / Fold change vs veh, CUX1 / RFU, TTC7A / Fold change vs veh, TTC7A / RFU, TMEM135 / Fold change vs veh, TMEM135 / RFU, DEPTOR / Fold change vs veh, DEPTOR / RFU, CPM / Fold change vs veh, CPM / RFU, DNAJB6 / Fold change vs veh, DNAJB6 / RFU, CACNA2D3 / Fold change vs veh, CACNA2D3 / RFU, DTX4 / Fold change vs veh, DTX4 / RFU, TFCP2 / Fold change vs veh, TFCP2 / RFU, GMCL1 /// GMCL1P1 / Fold change vs veh, GMCL1 /// GMCL1P1 / RFU, AEBP2 / Fold change vs veh, AEBP2 / RFU, SNHG1 /// SNORD22 /// SNORD25 /// SNORD26 /// SNORD27 /// SNORD28 /// SNORD29 /// SNORD31 / Fold change vs veh, SNHG1 /// SNORD22 /// SNORD25 /// SNORD26 /// SNORD27 /// SNORD28 /// SNORD29 /// SNORD31 / Fold change (Aza/veh), C12orf56 (ProbeSet 11735607_a_at) / Fold change (ACY-1035/veh), C12orf56 (ProbeSet 11735607_a_at) / Fold change (Aza/veh), FGFR1OP (ProbeSet 11751329_s_at) / Fold change (ACY-1035/veh), FGFR1OP (ProbeSet 11751329_s_at) / Fold change (Aza/veh), VPS36 (ProbeSet 11739960_a_at) / Fold change (ACY-1035/veh), VPS36 (ProbeSet 11739960_a_at) / RFU SYPL1 (11715823_x_at) / Fold change /veh SYPL1 (11715823_x_at) / RFU IGFBP7 (11715501_s_at) / Fold change /veh IGFBP7 (11715501_s_at) / RFU REEP3 (11722064_at) / Fold change /veh REEP3 (11722064_at) / RFU IGLL1 (11728026_x_at) / Fold change /veh IGLL1 (11728026_x_at): dose or concentration left out as unconfirmed. The format is cell-based, human. The following applies: ProbeSet 11716331_a_at; LIST D.

On to `Nc1ncn([C@@H]2O[C@H](CO)[C@@H](O)[C@H]2O)c(=O)n1` [azacitidine], for which the “RFU, DNAJB6” value was 212.79 RFU.

(Values after publication PMC5218480 (PLoS ONE, 2017).)
